These results are taken from patent publication US12673052B2, “Combinations for the treatment of cancer” (Exelixis, Inc., priority 2020, dated 2026).

Series [1] concerns CYP3A4. Description: Cytochrome P450 induction (mRNA levels) in fresh primary human hepatocytes. Type of series: in vitro ADME.
Series [2] is described as follows: Liver microsomal stability assay. Type of series: in vitro ADME, rat. Conditions: liver microsomes. The protocol:
In the liver microsomal stability assay, CLint was 0.601 mL/min/g liver in mouse, 0.563 mL/min/g liver in rat, 0.315 mL/min/g liver in dog, 0.734 mL/min/g liver in monkey, and 0.639 mL/min/g liver in human. In the hepatocyte stability assay, Compound 1 CLint was 0.373 mL/min/g liver in mouse, 0.285 mL/min/g liver in rat, 1.08 mL/min/g liver in dog, 0.533 mL/min/g liver in monkey, and 0.317 mL/min/g liver in human.

The test system of series [3] is advanced solid tumors. As to the kind of experiment: Phase 1 first-in-human Study Compound 1-001 (NCT03845166): safety (DLT, adverse events) and preliminary clinical activity. Type of series: in vivo. An excerpt:
The maximum tolerated dose (MTD) and/or recommended dose (RD) of Compound 1 single-agent therapy and ICI combination therapy will be determined in a Dose-Escalation Stage. The preliminary efficacy of Compound 1 as single agent and as ICI combination therapy will be determined in a Cohort-Expansion Stage with tumor-specific expansion cohorts. As of 14 Dec. 2020, dose escalation of Compound 1 as single agent and in combination therapy with atezolizumab was ongoing: 19 subjects were enrolled in single agent cohorts across six dose levels (PIB: 10, 20 mg; Tablet: 20, 40, 80, 140 mg); three subjects were enrolled in combination therapy with atezolizumab at one dose level (Compound 1 40 mg po qd plus atezolizumab 1200 mg IV q3w). As of 14 Dec. […] The majority of reported adverse events (AEs) were of low-grade severity (Grade 1-2) with five subjects having experienced treatment-related Grade 3 events.
In the Compound 1 single-agent dose-escalation cohorts, study drug will be administered qd for the first 28 days, which comprises the Dose-Limiting Toxicity (DLT) Evaluation Period. At the end of the 28-day DLT period, the Cohort Review Committee will review all available safety and PK data for cohorts containing at least 3 subjects and dose escalation to the next cohort may proceed if 0 out of 3 subjects or […] subjects experience(s) a DLT (as defined below). Dose escalation to the next cohort will not exceed a doubling of the Compound 1 dose; however, the Cohort Review Committee may decide to institute a less-than-doubling escalation between cohorts based on evaluation of safety and PK results from the current and previous cohorts.
Dose-limiting toxicity is defined as any of the following treatment-emergent AEs occurring during the DLT Evaluation Period for Compound 1 as single-agent therapy: • Any treatment-emergent AE that in the opinion of the Cohort Review Committee is of potential clinical significance such that further dose escalation of Compound 1 would expose subjects to unacceptable risk • Non-hematologic toxicity: treatment-emergent […] AEs • The following hematologic toxicities that are treatment-emergent: • Grade 3 thrombocytopenia with clinically significant bleeding • Grade 4 thrombocytopenia • Grade 4 neutropenia of 4 days duration • Grade 3 neutropenia of any duration with fever (single temperature of ≥38.3° C. [101.0° F.] or sustained temperature of ≥38.0° C. [100.4° F.] for ≥1 hour) or documented infection • Grade 4 anemia • Inability to take 75% of the total planned Compound 1 dose for the DLT Evaluation Period because of a treatment-emergent AE leading to a dose reduction and/or interruption • Any AE experienced during the DLT Evaluation Period that results in permanent discontinuation of Compound 1 For subjects receiving Compound 1 as combination therapy with atezolizumab or avelumab, the above in addition to the following are defined as DLTs: • Any related Grade 3 AE which is unexpected in severity and/or duration compared with the known safety profiles of Compound 1 and atezolizumab or avelumab when used as single agents, and that cannot be managed by dose modification (reduction or interruption) and adequate supportive care, and requires permanent discontinuation of Compound 1 and/or atezolizumab or avelumab. • Any AE experienced during the DLT Evaluation Period that results in permanent discontinuation of Compound 1 and/or atezolizumab or avelumab Note: AEs are presumed attributable to study drug. […]

Turning to `CNC(=O)c1cc2c(Oc3ccc(NC(=O)C4(C(=O)Nc5ccc(F)cc5)CC4)cc3)ccnc2cc1OC` [Compound 1, 1-N′-(4-Fluorophenvl)-1-N-[4-[7-methoxy-6-(methylcarbamovl)quinolin-4-yl]oxyphenyl]cyclopropane-1,1-dicarboxamide], in series [1] (human, fresh primary human hepatocytes, mRNA induction, read-out: half-maximal effective concentration (EC50)), the EC50 is 2.98 µM. Moreover, in series [1] (mRNA, 0.1-100 μM), the “maximal induction effect (Emax)” value turned out to be 24 fold. The molecule also had a CLint in series [2] of 0.563 mL/min/g liver. Further, in series [3] (as of 14 Dec. 2020), the “subjects with treatment-related Grade 3 events” value was “five subjects” and the “treatment-related Grade 4 or Grade 5 events” value is “no treatment-related Grade 4 or Grade 5 events”. For the same molecule, the tolerability result in series [3] (single agent and in combination with ICI therapy) was “well tolerated”. Besides, the preliminary clinical activity entry in series [3] (single agent therapy and atezolizumab combination therapy cohorts) is “prolonged disease stabilization and tumor regressions”. Further, the “DLTs observed among completed dose levels” value in series [3] (single agent, one subject at 140 mg po qd, Grade 3 uncontrolled hypertension) was “one DLT”.
